≈ marks a conversion by molar mass, not a printed value. Calls of active or inactive are those of the source. No cut-off for these calls is given here. Residues, ends and D or L forms follow the SMILES beside them. *: point of attachment. Stearoyl = CCCCCCCCCCCCCCCCCC(=O)*; Palmitoyl = CCCCCCCCCCCCCCCC(=O)*; Myristoyl = CCCCCCCCCCCCCC(=O)*; Decanoyl = CCCCCCCCCC(=O)*
Key:
Staphylococcus aureus [1] = assay: Antimicrobial activity against methicillin-resistant Staphylococcus aureus 113 after 18 hrs by broth microdilution method; format: functional
Staphylococcus aureus [2] = assay: Antimicrobial activity against Staphylococcus aureus ATCC 29213 after 18 hrs by broth microdilution method; format: functional
Staphylococcus aureus [3] = assay: Induction of nucleic acid leakage in Staphylococcus aureus ATCC 25923 at 4 times MIC; format: functional
Staphylococcus aureus [4] = assay: Antimicrobial activity against Staphylococcus aureus ATCC 25923 infected in neutropenia BALB/c mouse assessed as reduction in bacterial load in spleen at 10 to 20 mg/kg, ip administered staring from 2 hrs post infection and measured 8 hrs post-infected; format: functional, organism-based; details: dose 10-20 mg/kg, time 6.0 hrs
Staphylococcus aureus [5] = assay: Induction of reactive oxygen species generation in Staphylococcus aureus ATCC 25923 by […] dye based fluorescence assay; format: functional, organism-based
Cell membrane [6] = assay: Induction of membrane disruption in Staphylococcus aureus ATCC 25923 measured after 2 hrs by propidium iodide staining based confocal laser scanning microscopic analysis; format: subcellular
Staphylococcus aureus [7] = assay: Antibiofilm activity against Staphylococcus aureus ATCC 25923 at 0.5 to 8 uM after 24 hrs by crystal violet staining based assay; format: functional, organism-based; details: dose 0.5-8 µM
Staphylococcus aureus [8] = assay: Antibiofilm activity against ciprofloxacin-resistant Staphylococcus aureus ATCC 25923 at 0.5 to 8 uM after 24 hrs by crystal violet staining based assay; format: functional, organism-based; details: dose 0.5-8 µM
Mus musculus = assay: Antiinflammatory activity in Staphylococcus aureus ATCC 25923 infected neutropenia BALB/c mouse assessed as reduction in TNFalpha level in serum at 10 to 20 mg/kg, ip administered staring from 2 hrs post infection and measured 8 hrs post-infected; format: functional, organism-based; details: dose 10-20 mg/kg, time 6.0 hrs
[9] = test system: Staphylococcus epidermidis; assay: Antimicrobial activity against Staphylococcus epidermidis ATCC 12228 after 18 hrs by broth microdilution method; format: functional
Bacillus subtilis = assay: Antimicrobial activity against Bacillus subtilis ATCC 23857 after 18 hrs by broth microdilution method; format: functional
Cell membrane [10] = assay: Induction of membrane disruption in Staphylococcus aureus ATCC 25923 measured after 2 hrs by propidium iodide staining based flow cytometry
Staphylococcus aureus [11] = assay: Antimicrobial activity against Staphylococcus aureus ATCC 25923 infected in neutropenia BALB/c mouse assessed as reduction in lung bacterial load at 10 to 20 mg/kg, ip administered staring from 2 hrs post infection and measured 8 hrs post-infected; format: functional, organism-based; details: dose 10-20 mg/kg, time 6.0 hrs
Staphylococcus aureus [12] = assay: Antimicrobial activity against Staphylococcus aureus ATCC 25923 infected in neutropenia BALB/c mouse assessed as reduction in bacterial load in kidney at 10 to 20 mg/kg, ip administered staring from 2 hrs post infection and measured 8 hrs post-infected; format: functional, organism-based; details: dose 10-20 mg/kg, time 6.0 hrs
Cell membrane [13] = assay: Induction of cytoplasmic membrane disruption in Staphylococcus aureus ATCC 25923 measured for 15 mins by DiSC3-5 dye based fluorescence assay
Staphylococcus aureus [14] = assay: Antimicrobial activity against Staphylococcus aureus ATCC 25923 after 18 hrs by broth microdilution method; format: functional
Staphylococcus aureus [15] = assay: Antimicrobial activity against Staphylococcus aureus ATCC 25923 assessed as bacterial killing preincubated for 4 hrs followed by replating on MHB agar and measured after 24 hrs by time kill assay; format: functional, organism-based; details: time 28.0 hrs
Staphylococcus aureus [16] = assay: Antimicrobial activity against methicillin-resistant Staphylococcus aureus 75 after 18 hrs by broth microdilution method; format: functional
Lipopolysaccharide (LPS) = assay: Binding affinity to LPS (unknown origin) assessed as bacterial killing at 2 times MIC preincubated for 1 hr followed by Staphylococcus aureus ATCC 25923 addition and measured after 2 hrs by colony counting method; details: time 3.0 hrs
[17] = Binding affinity to LTA (unknown origin) assessed as bacterial killing at 2 times MIC preincubated for 1 hr followed by Staphylococcus aureus ATCC 25923 addition and measured after 2 hrs by colony counting method; details: time 3.0 hrs
Staphylococcus aureus [18] = assay: Antimicrobial activity against Staphylococcus aureus ATCC 25923 infected in neutropenia BALB/c mouse assessed as reduction in bacterial load in liver at 10 to 20 mg/kg, ip administered staring from 2 hrs post infection and measured 8 hrs post-infected; format: functional, organism-based; details: dose 10-20 mg/kg, time 6.0 hrs
Erythrocyte = assay: Hemolytic activity against mouse erythrocytes measured after 1 hr; format: ADME, cell-based
[19] = Therapeutic index, ratio of MHC for mouse RBC to geometric mean of peptide MIC for Staphylococcus epidermidis ATCC 12228; format: toxicity; details: pooled result: one value given for 6 cell lines, strains, targets or settings, read-out: TI

SMILES	MIC (Staphylococcus aureus [1]) [µM]	MIC (Staphylococcus aureus [2]) [µM]	MIC [9] [µM]	MIC (Bacillus subtilis) [µM]	MIC (Staphylococcus aureus [14]) [µM]	MIC (Staphylococcus aureus [16]) [µM]	MHC10 (Erythrocyte) [µM]	selectivity ratio [19]	also measured
O=C(O)c1cn(C2CC2)c2cc(N3CCNCC3)c(F)cc2c1=O [CIPROFLOXACIN]	< 1	1 (≈ 0.331 µg/mL)	< 1	< 1	1 (≈ 0.331 µg/mL)	128 (≈ 42.4 µg/mL)			Activity (Staphylococcus aureus [3]): Active; Activity (Staphylococcus aureus [4]): Active; Activity (Staphylococcus aureus [5]): Active; Activity (Cell membrane [6]): inactive; Activity (Staphylococcus aureus [7]): Active; Activity (Staphylococcus aureus [8]): Active; Activity (Mus musculus): Active; Activity (Cell membrane [10]): inactive; Activity (Staphylococcus aureus [11]): Active; Activity (Staphylococcus aureus [12]): Active; Activity (Cell membrane [13]): inactive; Activity (Staphylococcus aureus [15]): inactive; Activity (Lipopolysaccharide (LPS)): inactive; Activity [17]: inactive; Activity (Staphylococcus aureus [18]): Active
CCCCCCCCCCCCCCCCCC(=O)N[C@@H](Cc1c[nH]c2ccccc12)C(=O)N[C@@H](CCCNC(=N)N)C(=O)N[C@@H](CCCNC(=N)N)C(N)=O (Stearoyl-Trp-Arg-Arg-NH2)	16 (≈ 12.5 µg/mL)	32 (≈ 25 µg/mL)	8 (≈ 6.26 µg/mL)	16 (≈ 12.5 µg/mL)	16 (≈ 12.5 µg/mL)	8 (≈ 6.26 µg/mL)	32	2	
CCCCCCCCCCCCCCCCCC(=O)N[C@@H](CCCNC(=N)N)C(=O)N[C@@H](Cc1c[nH]c2ccccc12)C(=O)N[C@@H](Cc1c[nH]c2ccccc12)C(N)=O (Stearoyl-Arg-Trp-Trp-NH2)	> 128	> 128	128 (≈ 104 µg/mL)	> 128	> 128	> 128	256	1.09	
CCCCCCCCCCCCCCCCCC(=O)N[C@@H](CCCNC(=N)N)C(=O)N[C@@H](CCCNC(=N)N)C(=O)N[C@@H](CCCNC(=N)N)C(N)=O (Stearoyl-Arg-Arg-Arg-NH2)	2 (≈ 1.5 µg/mL)	4 (≈ 3.01 µg/mL)	8 (≈ 6.02 µg/mL)	8 (≈ 6.02 µg/mL)	4 (≈ 3.01 µg/mL)	4 (≈ 3.01 µg/mL)	32	4	
CCCCCCCCCCCCCC(=O)N[C@@H](Cc1c[nH]c2ccccc12)C(=O)N[C@@H](CCCNC(=N)N)C(=O)N[C@@H](CCCNC(=N)N)C(N)=O (Myristoyl-Trp-Arg-Arg-NH2)	2 (≈ 1.45 µg/mL)	8 (≈ 5.81 µg/mL)	4 (≈ 2.9 µg/mL)	4 (≈ 2.9 µg/mL)	8 (≈ 5.81 µg/mL)	2 (≈ 1.45 µg/mL)	64	13.7	
CCCCCCCCCC(=O)N[C@@H](CCCNC(=N)N)C(=O)N[C@@H](CCCNC(=N)N)C(=O)N[C@@H](CCCNC(=N)N)C(N)=O (Decanoyl-Arg-Arg-Arg-NH2)	128 (≈ 81.9 µg/mL)	128 (≈ 81.9 µg/mL)	64 (≈ 41 µg/mL)	32 (≈ 20.5 µg/mL)	128 (≈ 81.9 µg/mL)	128 (≈ 81.9 µg/mL)	> 256	5.05	
CCCCCCCCCCCCCC(=O)N[C@@H](CCCNC(=N)N)C(=O)N[C@@H](CCCNC(=N)N)C(=O)N[C@@H](Cc1c[nH]c2ccccc12)C(N)=O (Myristoyl-Arg-Arg-Trp-NH2)	2 (≈ 1.45 µg/mL)	4 (≈ 2.9 µg/mL)	8 (≈ 5.81 µg/mL)	8 (≈ 5.81 µg/mL)	8 (≈ 5.81 µg/mL)	2 (≈ 1.45 µg/mL)	32	6	
CCCCCCCCCCCCCCCCCC(=O)N[C@@H](CCCNC(=N)N)C(=O)N[C@@H](Cc1c[nH]c2ccccc12)C(=O)N[C@@H](CCCNC(=N)N)C(N)=O (Stearoyl-Arg-Trp-Arg-NH2)	8 (≈ 6.26 µg/mL)	128 (≈ 100 µg/mL)	8 (≈ 6.26 µg/mL)	16 (≈ 12.5 µg/mL)	16 (≈ 12.5 µg/mL)	8 (≈ 6.26 µg/mL)	32	1.04	
CCCCCCCCCCCCCCCC(=O)N[C@@H](Cc1c[nH]c2ccccc12)C(=O)N[C@@H](CCCNC(=N)N)C(=O)N[C@@H](CCCNC(=N)N)C(N)=O (Palmitoyl-Trp-Arg-Arg-NH2)	8 (≈ 6.03 µg/mL)	8 (≈ 6.03 µg/mL)	8 (≈ 6.03 µg/mL)	8 (≈ 6.03 µg/mL)	8 (≈ 6.03 µg/mL)	8 (≈ 6.03 µg/mL)	32	4	
CCCCCCCCCC(=O)N[C@@H](CCCNC(=N)N)C(=O)N[C@@H](Cc1c[nH]c2ccccc12)C(=O)N[C@@H](CCCNC(=N)N)C(N)=O (Decanoyl-Arg-Trp-Arg-NH2)	16 (≈ 10.7 µg/mL)	32 (≈ 21.4 µg/mL)	16 (≈ 10.7 µg/mL)	16 (≈ 10.7 µg/mL)	16 (≈ 10.7 µg/mL)	16 (≈ 10.7 µg/mL)	> 256	3.43	
CCCCCCCCCC(=O)N[C@@H](CCCNC(=N)N)C(=O)N[C@@H](Cc1c[nH]c2ccccc12)C(=O)N[C@@H](Cc1c[nH]c2ccccc12)C(N)=O (Decanoyl-Arg-Trp-Trp-NH2)	8 (≈ 5.6 µg/mL)	16 (≈ 11.2 µg/mL)	32 (≈ 22.4 µg/mL)	16 (≈ 11.2 µg/mL)	32 (≈ 22.4 µg/mL)	8 (≈ 5.6 µg/mL)	> 256	27.4	

— ChEMBL document CHEMBL4706653, “Ultra-short lipopeptides against gram-positive bacteria while alleviating antimicrobial resistance” (Eur J Med Chem, 2021)
